# Assay results published in patent US20050130134A1, “Means and methods for monitoring non-nucleoside reverse transcriptase inhibitor antiretroviral therapy and guiding therapeutic decisions in the treatment HIV-AIDS” (ViroLogic, Inc., priority 2000, published 2005).
# “Also recorded” adds a separate entry of the source.
# Columns and labels:
# [1] = test system: RTV-209 patient virus (RT E138A, Y188L); experiment: Phenotypic susceptibility assay, RTV-209 (patient 97-209); format: cell-based, HIV-1
# Experimental: (§1) Transfections were performed using a calcium-phosphate precipitation procedure. […] Cell lysates were assayed for luciferase activity (FIG. 3). […] The drug inhibition curves are shown in (FIG. 3).
# This patient had been previously treated with AZT, ddI, d4T and 3TC (NRTIs), indinavir (a PRIs) and adefovir. […].
# [2] = test system: HIV reverse transcriptase K103N + Y181C double mutant; settings: K103N + Y181C double mutant compared to single mutants, FIG. 5
# Experimental: (§2) Resistance tests were carried out with resistance test vectors using two host cell types. Resistance test vector viral particles were produced by a first host cell (the resistance test vector host cell) that was prepared by transfecting a packaging host cell with the resistance test vector and the packaging expression vector. The resistance test vector viral particles were then used to infect a second host cell (the target host cell) in which the expression of the indicator gene is measured.
# (§3) The resistance test vectors containing a functional luciferase gene cassette were constructed and host cells were transfected with the resistance test vector DNA. The resistant test vectors contained patient-derived reverse transcriptase and protease sequences that were either susceptible or resistant to the antiretroviral agents, such as nucleoside reverse transcriptase inhibitors, non-nucleoside reverse transcriptase inhibitors and protease inhibitors. The resistance test vector viral particles produced by transfecting the resistance test vector DNA into host cells, either in the presence or absence of protease inhibitors, were used to infect target host cells grown either in the absence of NRTI or NNRTI or in the presence of increasing concentrations of the drug. The amount of luciferase activity produced in infected target host cells in the presence of drug was compared to the amount of luciferase produced in infected target host cells in the absence of drug. Drug resistance was measured as the amount of drug required to inhibit by 50% the luciferase activity detected in the absence of drug (inhibitory concentration 50%, IC50). The IC50 values were determined by plotting percent drug inhibition vs. log10 drug concentration.
# (§4) Host cells were seeded in 10-cm-diameter dishes and were transfected several days after plating with resistance test vector plasmid DNA and the envelope expression vector. Transfections were performed using a calcium-phosphate precipitation procedure. The cell culture media containing the DNA precipitate was replaced with fresh medium, from one to 24 hours, after transfection. Cell culture media containing resistance test vector viral particles was harvested one to four days after transfection and was passed through a […] filter before being stored at −80° C. HIV capsid protein (p24) levels in the harvested cell culture media were determined by an EIA method as described by the manufacturer (SIAC; Frederick, Md.). Before infection, target cells (293 and 293/T) were plated in cell culture media. Control infections were performed using cell culture media from mock transfections (no DNA) or transfections containing the resistance test vector plasmid DNA without the envelope expression plasmid. One to three or more days after infection the media was removed and cell lysis buffer (Promega) was added to each well. […] The inhibitory effect of the drug was determined using the following equation: % luciferase inhibition=1-(RLUluc[drug]÷RLUluc)×100 where RLUluc [drug] is the relative light unit of luciferase activity in infected cells in the presence of drug and RLUluc is the Relative Light Unit of luciferase activity in infected cells in the absence of drug. IC50 values were obtained from the sigmoidal curves that were generated from the data by plotting the percent inhibition of luciferase activity vs. the log10 drug concentration.
# [3] = test system: RTV-652 patient virus (RT V108I); settings: >1 decrease, <1 increased susceptibility
# Experimental: as §2, §3, §4
# [4] = test system: RTV-675 patient virus (RT A98G); settings: >1 decreased susceptibility
# Experimental: as §2, §3, §4
# [5] = test system: patient 302 virus clones K103N, P225H versus K103N, I135M, R211K; settings: patient 302 clones with versus without P225H, FIG. 8C
# Experimental: as §2, §3, §4
# [6] = test system: patient 487 virus (RT M184V, K103N); settings: FIG. 4
# Experimental: as §2, §3, §4
# [7] = target: RT with P236L substitution (Human immunodeficiency virus type 1 group M subtype B, UniProt P04585, P823L); settings: cited from earlier work; for previously reported effect of the P236L mutation: Dueweke et al. 1993
# [8] = test system: RTV-268 patient virus (RT P236L with M41L, D67N, M184V, L210W, T215Y, K219Q); experiment: Phenotypic susceptibility assay, RTV-268 (patient 97-268); format: cell-based, HIV-1; settings: RTV-268 patient virus compared to reference virus
# Experimental: as §2, §3, §4
# A resistance test vector was constructed as described in Example 1 from a patient sample designated 97-268. […] Isolation of viral RNA and RT/PCR was used to generate a patient derived segment that comprised viral sequences coding for all of PR and amino acids 1-313 of RT. The patient derived segment was inserted into a indicator gene viral vector to generate a resistance test vector designated RTV-268.
# [9] = test system: RTV-964 patient virus (RT Y181I); experiment: Phenotypic susceptibility assay, RTV-964 (patient 98-964); format: cell-based, HIV-1
# Experimental: as §1
# [10] = test system: HIV-1 reverse transcriptase Y188H (Y188H-RTV); settings: >1 loss of susceptibility
# Experimental: as §2
# (§5) The resistance test vectors containing a functional luciferase gene cassette were constructed and host cells were transfected with the resistance test vector DNA. The resistant test vectors contained patient-derived reverse transcriptase and protease sequences that were either susceptible or resistant to the antiretroviral agents, such as nucleoside reverse transcriptase inhibitors, non-nucleoside reverse transcriptase inhibitors and protease inhibitors. […] The IC50 values were determined by plotting percent drug inhibition vs. log10 drug concentration.
# (§6) Host cells were seeded in 10-cm-diameter dishes and were transfected several days after plating with resistance test vector plasmid DNA and the envelope expression vector. […] HIV capsid protein (p24) levels in the harvested cell culture media were determined by an EIA method as described by the manufacturer (SIAC; Frederick, Md.). […]
# [11] = test system: HIV-1 reverse transcriptase K103N + Y188L (K103N-Y188L-RTV); experiment: Phenotypic susceptibility assay, site directed mutant K103N-Y188L-RTV; format: cell-based; settings: >1 loss of susceptibility
# Experimental: as §2, §5, §6
# [12] = test system: HIV-1 reverse transcriptase L100I + K103N (L100I-K103N-RTV); experiment: Phenotypic susceptibility assay, site directed mutant L100I-K103N-RTV; format: cell-based; settings: >1 loss of susceptibility
# Experimental: as §2, §5, §6
# [13] = test system: HIV-1 reverse transcriptase L100I + K103N + Y188L (L100I-K103N-Y188L-RTV); experiment: Phenotypic susceptibility assay, site directed mutant L100I-K103N-Y188L-RTV; format: cell-based; settings: >1 loss of susceptibility
# Experimental: as §2, §5, §6
# [14] = test system: Tyr181Cys (Y181C) mutation of HIV RT; settings: cited from earlier work
smiles,measurement,setting,value
CC(C)Nc1cccnc1N1CCN(C(=O)c2cc3cc(NS(C)(=O)=O)ccc3[nH]2)CC1 [delavirdine],decrease in susceptibility,[1],75 fold
same,resistance profile,[2],further increase in resistance
same,fold change in susceptibility,[3],0.97 fold
same,fold change in susceptibility,[4],2.1 fold
same,effect of P225H on resistance associated with K103N,[5],reduces the amount delavirdine resistance
same,resistance profile,[6],increased resistance
same,previously reported effect of the P236L mutation,[7],delavirdine resistance
Cc1ccnc2c1NC(=O)c1cccnc1N2C1CC1 [nevirapine],change in susceptibility / resistance,[8],no change; also recorded: the same as wild type
same,decrease in susceptibility,[9],750 fold
same,decrease in susceptibility,[1],greater than 800 fold
same,resistance profile,[2],further increase in resistance
same,fold change in susceptibility,[3],5 fold
same,fold change in susceptibility,[4],6 fold
same,effect of P225H on resistance associated with K103N,[5],does not alter the amount of nevirapine resistance
same,resistance profile,[6],increased resistance
same,fold change in susceptibility compared to wild type control RTV,[10],3.5 fold
same,fold change in susceptibility compared to wild type control RTV,[11],greater than 800 fold
same,fold change in susceptibility compared to wild type control RTV,[12],70 fold
same,fold change in susceptibility compared to wild type control RTV,[13],greater than 800 fold
same,reduction in sensitivity,[14],100 fold
same,reduction of IC50,[7]; P236L substitution,7 to 10 fold
same,previously reported effect of the P236L mutation,[7],nevirapine hypersensitivity
